Experimental data taken from article PMC4640066 (Nature Communications, 2015).

Test system: HeLa cells
Assay: MT nucleation (regrowth) assay, HeLa cells
Assay type: cell-based, human
Conditions: 30 μM, MT regrowth 1 min, EB1 area
Method: HeLa and U2OS cells were cultured in DMEM+GlutaMAX (Gibco) supplemented with 10% fetal bovine serum (FBS), 100 U ml^−1 penicillin, 100 μg ml^−1 streptomycin and 1 mM sodium pyruvate in a humidified atmosphere containing 5% CO2. RPE-1 cells were cultured in DMEM/F-12 (Gibco) supplemented with 10% FBS, 2 mM L-glutamine, 100 U ml^−1 penicillin, 100 μg ml^−1 streptomycin, 1 mM sodium pyruvate containing 10% FBS in a humidified atmosphere containing 5% CO2.
To depolymerize MTs, interphase cells were treated with 10 μM of nocodazole for 3 h, washed with cold medium and incubated on ice for 1 h. Mitotic cells were treated with 10 μM of STLC for 6 h, washed with cold medium and incubated on ice for 1 h. Subsequently, both cells were incubated in medium containing 1% DMSO or 30 μM of gatastatin for 10 min on ice. Cells were then put in warmed medium containing either 1% DMSO or 30 μM of gatastatin and were incubated at 37 °C (interphase cells) or 20 °C (mitotic cells) for 1 min. The cells were immediately fixed with cold MeOH (−20 °C).
After blocking with PBS containing 0.5% bovine serum albumin, cells were incubated with anti-EB1 antibody (1:500 dilution, Abcam, Cat# ab53358), anti-α-tubulin antibody (1:500 dilution, Sigma, Cat# T9026) and anti-pericentrin antibody (1:2,000 dilution, Abcam, Cat# ab4448). […]

With `COc1cc2c(=O)c(-c3cc(OC)c4c(c3OC)OCO4)coc2cc1OCc1ccccc1` [Gatastatin, O^7-demethylbenzyl AG1] the “Effect on MT nucleation activity of interphase and mitotic centrosomes” value was “inhibited MT nucleation activity”.
